Read-outs that look alike come from different tables or passages of the source. A value given as a limit tells only on which side of the number the result lay.

The assay deals with FLU A (PR/8/34). Briefly: Flu A Neuraminidase Antiviral Assay. Type of assay: cell-based.

`O=C1c2c(O)c(=O)ccn2N2C(c3ccccc3)C(CC3(C(F)(F)F)CC3)CCC2N1CC1CC1` (single isomer, unassigned) [Compound 90A, 5-(cyclopropylmethyl)-7-hydroxy-1-phenyl-2-((1-(trifluoromethyl)cyclopropyl)methyl)-1,2,3,4,4a,5-hexahydrodipyrido[1,2-b:2′,1′-f][1,2,4]triazine-6,8-dione]: the EC50 – broadly, the concentration at which the effect is half-maximal – was found to be 772 nM.
The same measure, in the same setting: the value for `CN1C(=O)c2c(O)c(=O)ccn2N2C(c3ccccc3)C(CC(F)(F)F)CCC12C` (single isomer, unassigned) [Compound 111A, 7-hydroxy-4a,5-dimethyl-1-phenyl-2-(2,2,2-trifluoroethyl)-1,2,3,4,4a,5-hexahydrodipyrido[1,2-b:2′,1′-f][1,2,4]triazine-6,8-dione] was more than 8100 nM; that for `CCC1(c2ccccc2)CCC2N(C)C(=O)c3c(O)c(=O)ccn3N21` (single isomer, unassigned) [Compound 62D, 1-ethyl-6-hydroxy-4-methyl-1-phenyl-2,3,3a,4-tetrahydro-1H-pyrido[2,1-f]pyrrolo[1,2-b][1,2,4]triazine-5,7-dione] was 7970 nM.
Under “MDCK, 48 h”, `CN1C(=O)c2c(O)c(=O)ccn2N2C(c3ccccc3C(F)(F)F)CCCC12` (single isomer, unassigned) [Compound 14A, 7-hydroxy-5-methyl-1-(2-(trifluoromethyl)phenyl)-1,2,3,4,4a,5-hexahydrodipyrido[1,2-b:2′,1′-f][1,2,4]triazine-6,8-dione] had an EC50 of more than 8100 nM.
Regarding `CN1C(=O)c2c(O)c(=O)ccn2N2C(c3ccccc3)C(CCC(F)(F)F)CCC12` (single isomer, unassigned) [Compound 128B, 7-hydroxy-5-methyl-1-phenyl-2-(3,3,3-trifluoropropyl)-1,2,3,4,4a,5-hexahydrodipyrido[1,2-b:2′,1′-f][1,2,4]triazine-6,8-dione], the EC50 turned out to be 1.5 nM.
On to `CCN1C(=O)c2c(O)c(=O)ccn2N2C1CCC1(CCC(F)(F)CC1)C2c1ccccc1` (single isomer, unassigned) [Compound 76B], for which the EC50 is 2 nM.
As to `CC(C)CCO[C@@H]1CC[C@H]2N(C)C(=O)c3c(O)c(=O)ccn3N2[C@@H]1c1ccccc1` [Compound 161, (1R,2R,4aS)-7-hydroxy-2-(isopentyloxy)-5-methyl-1-phenyl-1,2,3,4,4a,5-hexahydrodipyrido[1,2-b:2′,1′-f][1,2,4]triazine-6,8-dione], the midpoint of the response (MDCK, 48 h), the EC50, lay at 120 nM.
The compound `CCN1C(=O)c2c(O)c(=O)ccn2N2C(c3ccccc3C)C(CCC(F)F)CCC12` (single isomer, unassigned) [Compound 102B, 2-(3,3-difluoropropyl)-5-ethyl-7-hydroxy-1-(o-tolyl)-1,2,3,4,4a,5-hexahydrodipyrido[1,2-b:2′,1′-f][1,2,4]triazine-6,8-dione] gave an EC50 of 36.5 nM.
Turning to `CN1C(=O)c2c(O)c(=O)ccn2N2C1CCC1(CCCC(F)(F)C1)C2c1ccccc1` (single isomer, unassigned) [Compound 75A, 3,3-difluoro-7′-hydroxy-5′-methyl-1′-phenyl-3′,4′,4a′,5′-tetrahydro-1′H-spiro[cyclohexane-1,2′-dipyrido[1,2-b:2′,1′-f][1,2,4]triazine]-6′,8′-dione], the EC50 is more than 810 nM.
Compound `CC1(c2ccccn2)CCCC2N(CC(F)(F)F)C(=O)c3c(O)c(=O)ccn3N21` (single isomer, unassigned) [Compound 39B, 7-hydroxy-1-methyl-1-(pyridin-2-yl)-5-(2,2,2-trifluoroethyl)-1,2,3,4,4a,5-hexahydrodipyrido[1,2-b:2′,1′-f][1,2,4]triazine-6,8-dione] yielded an EC50 of 10.1 nM.
Compound `CN1C(=O)c2c(O)c(=O)ccn2N2C(c3cccc4ccccc34)CCCC12` (single isomer, unassigned) [Compound 5B, 7-hydroxy-5-methyl-1-(naphthalen-1-yl)-1,2,3,4,4a,5-hexahydrodipyrido[1,2-b:2′,1′-f][1,2,4]triazine-6,8-dione] had an EC50 of 1700 nM.

The values above are taken from patent US20240018145A1, “[…]-DEPENDENT EN[…] TREATING OR […]” (priority 2020, published 2024).
